Data reported in patent publication US20170261494A1, “Disposable Single Cell Array for Personalized Diagnostics” (Northeastern University, priority 2016, published 2017).
Structures can show the parent of a compound that is named as a salt.

Legend:
[1] = test system: MCF7 cells; test: Paper-based single-cell array halo assay of DNA damage (NDF); details: drug concentration 50 μM (0 at 0 μM); FIG. 6E/6F
Procedure: (§1) Fibroblast cells, human glioblastoma cells (A172) and breast cancer cells (MCF7) were cultured in standard conditions (5% CO2 in air at 37° C.) in RPMI-1640 medium supplemented with 10% (v/v) fetal bovine serum and 1% (v/v) penicillin/streptomycin. For obtaining individual cells, cells were trypsinized.
(§2) After exposure to anticancer treatment (radiation or chemotherapy drug), cells were seeded on the cell array precursor at a density of 1×10^6 cells/ml, forming ordered single-cell arrays (FIG. 1A). The quality of single cell arrays was primarily determined by surface roughness of the substrate (FIGS. 3E-H). As the paper surface became smoother, more cells were attached, and the array became more ordered. The attachment probability was derived as the ratio between adsorbed cells and the number of micro-patches. The probability of single cell array increased as the number of layers increased from 25±3.1%, 70±3.5%, to 87±6.4% for 1, 3 and 5 layers of ink, respectively. Five layers of ink provided a high quality substrate for single cell array formation, making this method ideal for paper-based single-cell halo assay.
(§3) After incubating cells on the paper for 30 min, unattached cells were rinsed away with PBS, followed by addition of 1.5 ml 1% low melting point (LGT)-agarose on paper. The substrate was kept at room temperature for 10 min to allow gel solidification. Then, cells on the paper were immersed in 0.3 M NaOH for 30 min at room temperature, and stained with diluted (×10000) SYBR green I solution for 15 min. After removing unbound dye, cells were imaged using an Olympus IX81 fluorescent microscope and the acquired images were analyzed with in-house image analysis software to quantify DNA damage. Each data point was averaged from at least 50 individual cells.
(§4) An in-house MATLAB image processing software was developed for quantifying DNA damage. In order to isolate individual cells, images were thresholded using Otsu's method into 4 levels. The first level was considered background; the second and third levels were combined to label halo; and the fourth level was used to label the nucleus. All non-background levels were combined to form a binary image of a cell. The eccentricity of each cell object was measured on a scale of 0 to 1, where a score of 0 corresponded to a perfectly circular object and a score of 1 corresponded to a line. Cell objects with an eccentricity>0.5 were removed from the image on the assumption that they contain overlapping cells (due to deposition of un-patterned cells). FIGS. 4A-F show the process of automatic analysis of the single-cell array using MATLAB software. The original image was transferred from a color image to a grayscale image (FIG. 4A). […] DNA damage measurements were calculated based on the halos and nuclei labeled for each cell. […]

[2] = test system: fibroblast cells; test: as above; details: drug concentration 50 μM (0 at 0 μM); FIG. 6E/6F
Procedure: as §1, §2, §3, §4

[3] = test system: HCT-116, HCT-116-siRNA-topo1 and HCT-116-siRNA-topo2 cells; test: Single-cell array immunoblotting for topo1, topo2 and γH2AX in halo and nucleus; assay type: cell-based; details: alkaline solution, primary antibodies to topo1, topo2, γH2AX, fluorescent secondary antibodies
Procedure: (§5) Identification of topoisomerase complexes with DNA and histones at single-cell level can provide mechanistic confirmation on drug- or radiation-DNA interaction. Three colorectal cancer cell lines, HCT-116 (normal topo1/topo2 expression), HCT-116-siRNA-topo1 (low topo1 expression) and HCT-116-siRNA-topo2 (low topo2 expression), are treated with two drugs (one targets topo1 and the other targets topo2), followed by immunoblotting with the array of invention. First, cells are treated with CPT-11 (topo1 drug), and processed for use with the invention using SYBR SAFE dye to reflect the extent of DNA damage. […] In a second experiment, CPT-11 treated cells are subjected to an alkaline solution to allow damaged DNA diffusion (without fluorescence staining), and then incubated with three primary antibodies (topo1, topo2 and γH2AX) for 10 min. After washing to remove excess antibodies, three fluorescent secondary antibodies against topo1, topo2 and γ-H2AX are added. After washing away excess antibodies, the three proteins are detected with fluorescence imaging. […] Parallel studies with VP-16, which targets topo2 enzyme is performed. […] Similar experiments are performed to test X-ray irradiated cells. The results are compared to provide information on drug actions.

[4] = test system: HCT-116, HCT-116-siRNA-topo1 and HCT-116-siRNA-topo2 cells; test: Single-cell array halo assay in colorectal cancer cell lines with normal or low topo1/topo2 expression; assay type: cell-based; details: SYBR SAFE dye; compared among HCT-116, HCT-116-siRNA-topo1 and HCT-116-siRNA-topo2
Procedure: as §5

[5] = test system: A172 cells; test: Paper-based single-cell array halo assay of DNA damage (NDF); design: species or system human; details: drug concentration 50 μM (0 at 0 μM); FIG. 6E/6F
Procedure: After incubating cells on the paper for 30 min, unattached cells were rinsed away with PBS, followed by addition of 1.5 ml 1% low melting point (LGT)-agarose on paper. The substrate was kept at room temperature for 10 min to allow gel solidification. […] After removing unbound dye, cells were imaged using an Olympus IX81 fluorescent microscope and the acquired images were analyzed with in-house image analysis software to quantify DNA damage. […]
An in-house MATLAB image processing software was developed for quantifying DNA damage. […] The eccentricity of each cell object was measured on a scale of 0 to 1, where a score of 0 corresponded to a perfectly circular object and a score of 1 corresponded to a line. […] DNA damage measurements were calculated based on the halos and nuclei labeled for each cell. […]

SMILES	NDF of MCF7 cells [1]	NDF of fibroblast cells [2]	Protein found in halos (topoisomerase trapped in damaged DNA) [3]	Halo size (extent of DNA damage) [4]	NDF of A172 cells [5]
CCc1c2c(nc3ccc(OC(=O)N4CCC(N5CCCCC5)CC4)cc13)-c1cc3c(c(=O)n1C2)COC(=O)[C@]3(O)CC [irinotecan, irinotecan hydrochloride]	4.05	4.34	Only topo1 is found in halos	smallest in HCT-116-siRNA-topo1 cells	–
COc1cc([C@@H]2c3cc4c(cc3[C@@H](O[C@@H]3O[C@@H]5CO[C@@H](C)O[C@H]5[C@H](O)[C@H]3O)[C@H]3COC(=O)[C@H]23)OCO4)cc(OC)c1O [VP-16]	–	–	Only topo2 enzymes are trapped in damaged DNAs and diffused in halos	–	–
COc1cccc2c1C(=O)c1c(O)c3c(c(O)c1C2=O)C[C@@](O)(C(=O)CO)C[C@@H]3O[C@H]1C[C@H](N)[C@H](O)[C@H](C)O1 [doxorubicin, doxorubicin hydrochloride]	3.95	4.63	–	–	3.91
